Results: ChEMBL document CHEMBL5465560, “Selectivity Literature for EUbOPEN Chemogenomic Library” (2024)
Each block holds one compound with its values, some of them ahead of it.

Tests used:
[1] = system: Tyrosine-protein kinase ABL1 (Homo sapiens), P00519 [T315I]; settings: at 10 µM
[2] = target: T1, Serine/threonine-protein kinase Sgk1 (Homo sapiens) (UniProt O00141); experiment: Selectivity interaction (Millipore kinase profiler) EUB0000124b SGK1; settings: at 10 µM
T1 sequence (whole entry): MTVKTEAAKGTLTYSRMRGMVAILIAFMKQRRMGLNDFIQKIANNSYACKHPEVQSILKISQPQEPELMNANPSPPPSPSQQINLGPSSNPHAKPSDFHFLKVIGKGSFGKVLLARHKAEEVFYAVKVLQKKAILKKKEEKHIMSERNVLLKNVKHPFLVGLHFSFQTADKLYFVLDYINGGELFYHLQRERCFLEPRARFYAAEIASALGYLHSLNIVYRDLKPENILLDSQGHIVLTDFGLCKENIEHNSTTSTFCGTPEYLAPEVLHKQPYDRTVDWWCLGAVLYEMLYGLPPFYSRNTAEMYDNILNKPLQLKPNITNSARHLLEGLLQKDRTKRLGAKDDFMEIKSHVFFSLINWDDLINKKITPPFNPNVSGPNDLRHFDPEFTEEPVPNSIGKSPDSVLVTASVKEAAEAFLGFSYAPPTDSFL

[3] = target: Tyrosine-protein kinase CSK (Homo sapiens) (UniProt P41240); experiment: Selectivity interaction (KinomeScan (DiscoverX)) EUB0001049a CSK; settings: at 1 µM
Tyrosine-protein kinase CSK (Homo sapiens), sequence (P41240 2-450 limits assumed): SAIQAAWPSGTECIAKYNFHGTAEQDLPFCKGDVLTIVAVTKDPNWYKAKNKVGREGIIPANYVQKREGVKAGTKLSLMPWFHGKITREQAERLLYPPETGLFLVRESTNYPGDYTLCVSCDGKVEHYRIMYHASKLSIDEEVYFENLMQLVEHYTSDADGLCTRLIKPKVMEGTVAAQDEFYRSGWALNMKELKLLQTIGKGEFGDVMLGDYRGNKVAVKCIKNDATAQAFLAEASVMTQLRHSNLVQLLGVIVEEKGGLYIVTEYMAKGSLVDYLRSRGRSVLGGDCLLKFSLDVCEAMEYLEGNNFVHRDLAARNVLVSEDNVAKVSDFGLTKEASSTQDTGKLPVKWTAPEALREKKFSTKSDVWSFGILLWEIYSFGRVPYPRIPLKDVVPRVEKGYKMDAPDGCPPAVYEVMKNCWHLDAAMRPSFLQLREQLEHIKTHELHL

[4] = target: T2, Serine/threonine-protein kinase tousled-like 1 (Homo sapiens) (UniProt Q9UKI8); experiment: Selectivity interaction (KinomeScan (DiscoverX)) EUB0001049a TLK1; settings: at 1 µM
T2 sequence (whole entry): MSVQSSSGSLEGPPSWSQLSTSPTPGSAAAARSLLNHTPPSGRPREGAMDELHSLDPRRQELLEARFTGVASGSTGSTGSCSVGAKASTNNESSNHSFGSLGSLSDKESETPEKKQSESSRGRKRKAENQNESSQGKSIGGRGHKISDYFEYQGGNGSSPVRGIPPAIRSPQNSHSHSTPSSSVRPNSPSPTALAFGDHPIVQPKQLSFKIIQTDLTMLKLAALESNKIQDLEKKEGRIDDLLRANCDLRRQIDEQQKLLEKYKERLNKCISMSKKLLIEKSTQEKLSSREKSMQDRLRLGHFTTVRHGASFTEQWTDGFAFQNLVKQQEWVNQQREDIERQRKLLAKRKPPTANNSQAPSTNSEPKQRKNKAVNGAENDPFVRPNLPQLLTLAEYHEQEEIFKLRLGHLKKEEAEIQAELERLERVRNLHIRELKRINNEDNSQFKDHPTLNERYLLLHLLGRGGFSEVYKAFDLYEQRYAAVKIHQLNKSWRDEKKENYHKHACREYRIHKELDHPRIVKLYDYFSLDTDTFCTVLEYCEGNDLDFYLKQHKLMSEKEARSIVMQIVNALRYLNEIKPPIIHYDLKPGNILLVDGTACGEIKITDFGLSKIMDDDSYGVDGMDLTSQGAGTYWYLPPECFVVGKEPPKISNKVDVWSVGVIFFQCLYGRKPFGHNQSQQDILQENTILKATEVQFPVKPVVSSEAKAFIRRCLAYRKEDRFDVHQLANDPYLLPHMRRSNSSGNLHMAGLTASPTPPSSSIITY

[5] = target: Serine/threonine-protein kinase 10 (Homo sapiens) (UniProt O94804); experiment: Selectivity interaction (ActivX KiNativ screen (kinase selectivity in THP-1 cell lysates)) EUB0000639a STK10; format: subcellular; settings: lysate, at 0.2 µM
Serine/threonine-protein kinase 10 (Homo sapiens), sequence (O94804 whole entry, looked up): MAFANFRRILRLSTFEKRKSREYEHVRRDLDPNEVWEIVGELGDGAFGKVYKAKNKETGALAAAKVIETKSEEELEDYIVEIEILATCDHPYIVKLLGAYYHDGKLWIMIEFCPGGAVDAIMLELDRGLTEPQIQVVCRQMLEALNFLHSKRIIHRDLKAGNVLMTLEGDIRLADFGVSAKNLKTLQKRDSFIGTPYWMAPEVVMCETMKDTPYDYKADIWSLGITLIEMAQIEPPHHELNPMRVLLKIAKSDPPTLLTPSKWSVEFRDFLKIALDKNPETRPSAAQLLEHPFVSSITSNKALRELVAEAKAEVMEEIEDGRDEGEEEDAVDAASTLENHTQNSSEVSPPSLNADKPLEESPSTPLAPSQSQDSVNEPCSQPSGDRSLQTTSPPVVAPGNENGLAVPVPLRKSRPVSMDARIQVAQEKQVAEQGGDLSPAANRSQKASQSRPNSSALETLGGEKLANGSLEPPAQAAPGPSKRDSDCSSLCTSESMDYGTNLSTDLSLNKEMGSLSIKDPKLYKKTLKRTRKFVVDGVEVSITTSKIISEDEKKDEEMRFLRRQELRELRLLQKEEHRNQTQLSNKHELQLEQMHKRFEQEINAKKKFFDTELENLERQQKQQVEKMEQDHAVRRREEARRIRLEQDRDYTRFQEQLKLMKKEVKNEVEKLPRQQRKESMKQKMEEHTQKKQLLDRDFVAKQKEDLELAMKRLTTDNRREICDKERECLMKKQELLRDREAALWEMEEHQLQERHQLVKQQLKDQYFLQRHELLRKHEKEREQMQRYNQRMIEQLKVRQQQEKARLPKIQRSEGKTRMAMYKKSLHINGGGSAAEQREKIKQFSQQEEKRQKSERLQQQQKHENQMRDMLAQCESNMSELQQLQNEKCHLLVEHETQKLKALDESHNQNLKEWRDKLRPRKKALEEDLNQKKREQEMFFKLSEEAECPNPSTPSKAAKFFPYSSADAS

[6] = target: T3, Testis-specific serine/threonine-protein kinase 2 (Homo sapiens) (UniProt Q96PF2); experiment: Selectivity interaction (Kinase panel (Invitrogen)) EUB0000639a TSSK2; settings: at 200 nM
T3 sequence (whole entry): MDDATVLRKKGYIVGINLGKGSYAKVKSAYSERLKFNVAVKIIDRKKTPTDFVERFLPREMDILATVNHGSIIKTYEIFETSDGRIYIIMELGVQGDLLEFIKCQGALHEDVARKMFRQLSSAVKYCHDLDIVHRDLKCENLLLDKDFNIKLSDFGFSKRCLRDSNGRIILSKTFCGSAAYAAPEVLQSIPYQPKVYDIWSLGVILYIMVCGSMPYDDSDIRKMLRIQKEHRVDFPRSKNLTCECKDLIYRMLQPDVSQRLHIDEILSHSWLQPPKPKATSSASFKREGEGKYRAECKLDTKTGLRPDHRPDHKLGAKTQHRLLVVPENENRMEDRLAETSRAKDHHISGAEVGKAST

[7] = target: T4, Tyrosine-protein kinase TXK (Homo sapiens) (UniProt P42681); experiment: Selectivity interaction (KinomeScan (DiscoverX)) EUB0000695a TXK; settings: at 100 nM
T4 sequence (whole entry): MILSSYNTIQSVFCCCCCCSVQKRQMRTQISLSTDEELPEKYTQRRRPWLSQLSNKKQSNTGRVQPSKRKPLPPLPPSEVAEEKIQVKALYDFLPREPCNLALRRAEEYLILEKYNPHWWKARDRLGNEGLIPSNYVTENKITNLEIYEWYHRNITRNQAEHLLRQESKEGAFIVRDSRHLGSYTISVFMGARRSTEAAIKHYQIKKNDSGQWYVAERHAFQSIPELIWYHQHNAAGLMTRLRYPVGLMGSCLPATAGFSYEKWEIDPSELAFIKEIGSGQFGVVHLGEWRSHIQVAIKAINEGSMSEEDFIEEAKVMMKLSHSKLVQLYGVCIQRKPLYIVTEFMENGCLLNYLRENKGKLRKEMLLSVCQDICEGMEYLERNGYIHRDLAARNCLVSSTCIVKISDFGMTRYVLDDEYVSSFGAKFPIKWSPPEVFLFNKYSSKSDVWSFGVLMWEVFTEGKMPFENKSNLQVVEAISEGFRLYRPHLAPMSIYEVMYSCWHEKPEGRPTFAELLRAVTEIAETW

[8] = target: T2, Serine/threonine-protein kinase tousled-like 1 (Homo sapiens); settings: at 10 µM
[9] = system: eIF-2-alpha kinase GCN2 (Homo sapiens), Q9P2K8 [S808G]; experiment: Selectivity interaction (KinomeScan (DiscoverX)) EUB0001079a EIF2AK4; settings: at 1 µM
eIF-2-alpha kinase GCN2 (Homo sapiens), Q9P2K8 [S808G], sequence (Q9P2K8 whole entry S808G): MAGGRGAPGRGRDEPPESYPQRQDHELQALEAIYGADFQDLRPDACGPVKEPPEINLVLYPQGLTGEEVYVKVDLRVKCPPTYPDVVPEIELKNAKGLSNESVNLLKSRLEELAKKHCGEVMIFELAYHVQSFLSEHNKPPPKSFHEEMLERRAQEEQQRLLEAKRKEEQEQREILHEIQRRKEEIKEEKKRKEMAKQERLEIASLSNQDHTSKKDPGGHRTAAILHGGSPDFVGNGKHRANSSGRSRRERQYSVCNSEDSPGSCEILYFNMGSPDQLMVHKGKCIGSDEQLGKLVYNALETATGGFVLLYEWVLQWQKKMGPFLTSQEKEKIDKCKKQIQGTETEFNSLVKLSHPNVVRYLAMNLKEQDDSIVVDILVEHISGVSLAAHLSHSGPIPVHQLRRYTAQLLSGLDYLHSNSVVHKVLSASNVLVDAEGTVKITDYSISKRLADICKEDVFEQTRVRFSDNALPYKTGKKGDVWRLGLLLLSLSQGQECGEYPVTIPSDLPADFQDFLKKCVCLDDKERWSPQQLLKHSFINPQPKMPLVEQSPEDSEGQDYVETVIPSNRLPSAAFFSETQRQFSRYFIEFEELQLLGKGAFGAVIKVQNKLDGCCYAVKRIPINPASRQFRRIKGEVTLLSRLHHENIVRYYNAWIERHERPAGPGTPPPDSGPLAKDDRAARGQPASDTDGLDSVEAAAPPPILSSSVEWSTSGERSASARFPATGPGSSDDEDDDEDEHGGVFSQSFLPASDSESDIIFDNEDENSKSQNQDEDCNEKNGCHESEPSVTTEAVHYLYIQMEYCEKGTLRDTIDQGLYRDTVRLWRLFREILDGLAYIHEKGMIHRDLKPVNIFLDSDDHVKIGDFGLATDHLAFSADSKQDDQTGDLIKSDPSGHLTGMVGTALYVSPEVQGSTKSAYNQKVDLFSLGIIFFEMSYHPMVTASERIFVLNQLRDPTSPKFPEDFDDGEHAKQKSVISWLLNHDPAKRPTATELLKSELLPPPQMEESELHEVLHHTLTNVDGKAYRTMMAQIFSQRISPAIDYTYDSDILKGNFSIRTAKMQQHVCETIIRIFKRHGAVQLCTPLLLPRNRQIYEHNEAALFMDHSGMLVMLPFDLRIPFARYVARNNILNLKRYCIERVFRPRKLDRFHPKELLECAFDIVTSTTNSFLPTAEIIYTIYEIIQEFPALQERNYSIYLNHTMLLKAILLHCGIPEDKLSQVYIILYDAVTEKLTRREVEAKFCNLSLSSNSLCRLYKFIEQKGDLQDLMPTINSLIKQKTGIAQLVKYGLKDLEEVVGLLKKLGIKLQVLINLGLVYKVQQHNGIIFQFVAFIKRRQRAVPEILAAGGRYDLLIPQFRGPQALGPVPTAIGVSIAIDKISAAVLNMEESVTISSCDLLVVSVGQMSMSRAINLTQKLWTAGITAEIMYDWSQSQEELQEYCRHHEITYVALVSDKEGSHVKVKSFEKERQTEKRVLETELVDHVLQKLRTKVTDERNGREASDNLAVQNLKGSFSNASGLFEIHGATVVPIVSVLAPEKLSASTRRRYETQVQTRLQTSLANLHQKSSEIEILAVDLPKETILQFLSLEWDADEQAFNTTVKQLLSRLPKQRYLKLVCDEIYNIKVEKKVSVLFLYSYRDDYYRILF

[10] = target: Glycogen synthase kinase-3 alpha (Homo sapiens, UniProt P49840); experiment: Selectivity interaction (KinomeScan (DiscoverX)) EUB0001079a GSK3A; settings: at 1 µM
[11] = target: Serine/threonine-protein kinase pim-3 (Homo sapiens) (UniProt Q86V86); experiment: Selectivity interaction (KinomeScan (DiscoverX)) EUB0000092b PIM3; settings: at 10 µM
[12] = target: Calcium/calmodulin-dependent protein kinase type II subunit delta (Homo sapiens) (UniProt Q13557); experiment: Selectivity interaction (Kinase panel (DSF assay)) EUB0001559a CAMK2D
Calcium/calmodulin-dependent protein kinase type II subunit delta (Homo sapiens), sequence (Q13557 whole entry): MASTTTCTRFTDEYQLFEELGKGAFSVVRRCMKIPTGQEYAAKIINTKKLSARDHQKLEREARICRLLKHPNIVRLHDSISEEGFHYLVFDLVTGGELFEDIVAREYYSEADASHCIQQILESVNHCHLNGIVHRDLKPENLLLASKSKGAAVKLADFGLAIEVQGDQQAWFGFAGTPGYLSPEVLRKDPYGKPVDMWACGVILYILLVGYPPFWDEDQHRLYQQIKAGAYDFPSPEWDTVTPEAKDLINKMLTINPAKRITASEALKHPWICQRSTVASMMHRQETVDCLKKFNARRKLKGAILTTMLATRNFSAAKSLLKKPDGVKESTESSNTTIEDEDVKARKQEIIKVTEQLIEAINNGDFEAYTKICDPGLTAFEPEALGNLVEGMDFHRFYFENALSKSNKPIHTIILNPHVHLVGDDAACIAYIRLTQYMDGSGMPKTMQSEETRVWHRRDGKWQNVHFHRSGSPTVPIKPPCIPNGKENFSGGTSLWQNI

[13] = target: Serine/threonine-protein kinase RIO2 (Homo sapiens) (UniProt Q9BVS4); experiment: Selectivity interaction (KinomeScan (DiscoverX)) EUB0000607a RIOK2; settings: at 10 µM
Serine/threonine-protein kinase RIO2 (Homo sapiens), sequence (Q9BVS4 whole entry, looked up): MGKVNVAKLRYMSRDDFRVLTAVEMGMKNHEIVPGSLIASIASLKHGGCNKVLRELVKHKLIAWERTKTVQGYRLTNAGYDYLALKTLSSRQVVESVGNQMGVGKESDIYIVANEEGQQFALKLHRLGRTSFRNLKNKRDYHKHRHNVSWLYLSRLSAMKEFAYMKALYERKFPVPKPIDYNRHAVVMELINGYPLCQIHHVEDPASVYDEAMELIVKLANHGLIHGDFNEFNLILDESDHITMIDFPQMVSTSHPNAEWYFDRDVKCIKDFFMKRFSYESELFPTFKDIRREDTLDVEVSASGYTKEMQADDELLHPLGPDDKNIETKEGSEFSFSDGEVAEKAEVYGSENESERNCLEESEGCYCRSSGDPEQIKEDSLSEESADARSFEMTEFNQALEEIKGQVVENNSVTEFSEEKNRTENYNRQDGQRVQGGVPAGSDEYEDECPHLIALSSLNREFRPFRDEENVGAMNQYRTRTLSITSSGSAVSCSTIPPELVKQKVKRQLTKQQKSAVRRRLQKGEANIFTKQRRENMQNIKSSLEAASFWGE

[14] = target: Serine/threonine-protein kinase VRK2 (Homo sapiens) (UniProt Q86Y07); experiment: Selectivity interaction (KinomeScan (DiscoverX)) EUB0000666a VRK2; settings: at 10 µM
Serine/threonine-protein kinase VRK2 (Homo sapiens), sequence (Q86Y07 whole entry): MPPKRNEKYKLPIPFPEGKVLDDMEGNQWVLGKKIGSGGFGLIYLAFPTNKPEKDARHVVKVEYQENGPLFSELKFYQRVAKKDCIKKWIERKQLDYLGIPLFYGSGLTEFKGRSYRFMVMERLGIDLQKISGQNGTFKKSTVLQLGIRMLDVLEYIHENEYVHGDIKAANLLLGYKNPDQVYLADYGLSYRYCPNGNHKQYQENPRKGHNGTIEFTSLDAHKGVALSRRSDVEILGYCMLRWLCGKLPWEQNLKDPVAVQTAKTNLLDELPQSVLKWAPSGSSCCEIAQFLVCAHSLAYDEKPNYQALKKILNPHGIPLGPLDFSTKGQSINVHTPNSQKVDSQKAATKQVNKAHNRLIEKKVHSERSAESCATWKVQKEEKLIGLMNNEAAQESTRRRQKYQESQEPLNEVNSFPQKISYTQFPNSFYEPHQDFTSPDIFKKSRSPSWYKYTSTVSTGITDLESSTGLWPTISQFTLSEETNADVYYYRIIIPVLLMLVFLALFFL

SMILES: Cc1cc([C@@H](C)Nc2ccccc2C(=O)O)c2nc(N3CCOCC3)cc(=O)n2c1 [AZD-6482]
% of control [1]: 70%

% of control [2]: 114%
SMILES: CC(=O)Nc1cccc(-n2c(=O)n(C3CC3)c(=O)c3c(Nc4ccc(I)cc4F)n(C)c(=O)c(C)c32)c1

SMILES: COc1cc(Nc2nc(C)cc(-c3cnn4nc(OC)ccc34)n2)cc(C(F)(F)F)c1
% of control [3]: 59%
% of control [4]: 100%

% of inhibition [5]: -8.1%
% of inhibition [6]: 8.34%
SMILES: CC[C@@H]1[C@H](F)C(=O)N[C@@H]1COc1nccc2cc(C(N)=O)c(OC)cc12 [ZIMLOVISERTIB]

SMILES: Cc1cc(F)c(C(=O)Nc2cccc(-c3nncn3C(C)C)n2)cc1-n1cnc(C2CC2)c1
% of control [7]: 98%

SMILES: COCC(=O)NC/C=C/c1ccc2ncnc(Nc3ccc(Oc4ccc(C)nc4)c(C)c3)c2c1 [CP-724714]
% of control [8]: 79%

SMILES: Nc1cnc(N2CCc3cc(S(=O)(=O)Nc4c(F)cc(Cl)cc4F)cc(N4CCCC4=O)c32)nc1 [TP-020n]
% of control [9]: 100%
% of control [10]: 100%

SMILES: CCC(=O)N1CCN(c2ccc(-n3c(=O)ccc4cnc5ccc(-c6cnc7ccccc7c6)cc5c43)cc2C(F)(F)F)CC1
% of control [11]: 96%

dTM [12]: 0 K
SMILES: CN(C(=O)c1cnn2cccnc12)c1cc2c(cc1N1CCOCC1)C(=O)N(C[C@@H](F)C(C)(C)O)C2

SMILES: CNC(=O)Nc1ccc(-c2nc(N3CC4CCC(C3)O4)c3cnn(C4CCC5(CC4)OCCO5)c3n2)cc1
% of control [13]: 90%

SMILES: O=C(NOC[C@H](O)CO)c1ccc(F)c(F)c1Nc1ccc(I)cc1F
% of control [14]: 100%
